Among the test systems are SK-MEL-5 melanoma; SF-268 CNS; A549 NSCLC; MCF7 breast; NCI/ADR-RES ovarian; T-47D breast; SNB-75 CNS; LOX IMVI melanoma; NCI-H522 lung; UACC-62 melanoma; SK-OV-3 ovarian; MDA-MB-435; RXF 393 renal; TK-10 renal; SF-539 CNS.
Common to all, as to assay: NCI anticancer screen, dose series, 48 h

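Cultured in 96-well plates, cells were exposed to test compound for 48 hours across five concentrations. TGI: total growth inhibition.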

Turning to `CC(=O)Nc1c(C)cc(OCC(=O)O)cc1C`, the TGI in the test on SK-MEL-5 melanoma, with SF-268 CNS, in the test on A549 NSCLC, in the test on MCF7 breast, in the test with NCI/ADR-RES ovarian and with T-47D breast was over 100 µM each time. Besides, the TGI in the test on SNB-75 CNS, in the test with LOX IMVI melanoma, in the test on NCI-H522 lung, with UACC-62 melanoma, in the test on SK-OV-3 ovarian and in the test on MDA-MB-435 was over 100 µM each time. Moreover, the TGI with RXF 393 renal and in the test with TK-10 renal was over 100 µM throughout.

`CN(C)c1ccc(C2CC(=O)CC(c3ccc(N(C)C)cc3)C23C(=O)NC(=O)NC3=O)cc1` (centres undefined): the TGI in the test on SK-MEL-5 melanoma, in the test on SF-268 CNS, with MCF7 breast, in the test on NCI/ADR-RES ovarian, in the test with T-47D breast and with SNB-75 CNS was over 25 µM in each case. The TGI in the test on LOX IMVI melanoma, in the test on NCI-H522 lung, in the test with UACC-62 melanoma, in the test with MDA-MB-435, in the test on RXF 393 renal and in the test with TK-10 renal was over 25 µM each time. Further, the TGI in the test on SF-539 CNS is over 25 µM.

For the compound `COc1ccc2oc(=N)c(C(N)=S)cc2c1`, the TGI was 57.8 µM with SK-MEL-5 melanoma; 64.3 µM with SF-268 CNS; over 100 µM in the test on A549 NSCLC; over 100 µM in the test on MCF7 breast; 37.1 µM in the test on NCI/ADR-RES ovarian; 99.3 µM with T-47D breast. Moreover, the TGI in the test with SNB-75 CNS was 74.8 µM; with LOX IMVI melanoma, 33 µM; with NCI-H522 lung, 35.3 µM; in the test on UACC-62 melanoma it was 34 µM; in the test with SK-OV-3 ovarian, over 100 µM; with MDA-MB-435, over 100 µM. The TGI with RXF 393 renal is 32.8 µM; in the test with TK-10 renal, 90.2 µM; with SF-539 CNS, 51.7 µM.

Turning to `CN(C)c1ccc(C(C#N)N2CCCN(C(C#N)c3ccc(N(C)C)cc3)C2c2ccc(N(C)C)cc2)cc1` (centres undefined), the TGI in the test on SK-MEL-5 melanoma, in the test on SF-268 CNS, in the test on A549 NSCLC, in the test on MCF7 breast, with NCI/ADR-RES ovarian and in the test on T-47D breast was over 100 µM each time. For the same compound, the TGI in the test with SNB-75 CNS, in the test on LOX IMVI melanoma, with NCI-H522 lung, with UACC-62 melanoma, in the test with SK-OV-3 ovarian and with MDA-MB-435 was over 100 µM each time. For the same compound, the TGI with RXF 393 renal, in the test on TK-10 renal and in the test with SF-539 CNS was over 100 µM each time.

With `COc1ccc(CSCc2cc(OC)c(OC)c(OC)c2)cc1`, the TGI in the test with SK-MEL-5 melanoma was over 100 µM; in the test on SF-268 CNS, over 100 µM; in the test with A549 NSCLC it was over 100 µM; with MCF7 breast it was over 100 µM; in the test on NCI/ADR-RES ovarian it was over 31.6 µM; in the test with T-47D breast, over 100 µM. Besides, the TGI was over 100 µM in the test with SNB-75 CNS; over 31.6 µM in the test with LOX IMVI melanoma; over 100 µM in the test with NCI-H522 lung; over 100 µM in the test with UACC-62 melanoma; over 100 µM in the test on SK-OV-3 ovarian; over 81.3 µM with MDA-MB-435. Moreover, the TGI in the test with RXF 393 renal, in the test on TK-10 renal and with SF-539 CNS was over 100 µM in each case.

On to `COC(=O)n1c(=O)nc2c3c(ncn21)Oc1c(c(-c2ccccc2)nn1-c1ccccc1)C3c1ccc(Cl)cc1` (centres undefined), for which the TGI in the test with SK-MEL-5 melanoma came out at 3.16 µM; in the test on A549 NSCLC it was 3.15 µM; in the test on MCF7 breast, 3.06 µM; with NCI/ADR-RES ovarian, 2.77 µM; in the test with T-47D breast it was 3.23 µM; in the test on SNB-75 CNS, 7.69 µM. In addition, the TGI with LOX IMVI melanoma is 2.79 µM; in the test with NCI-H522 lung, 2.82 µM; in the test with UACC-62 melanoma it was 3.6 µM; in the test with SK-OV-3 ovarian it was 12.1 µM; in the test on MDA-MB-435, 3.02 µM; in the test with RXF 393 renal, 2.98 µM. Moreover, the TGI is 3.37 µM in the test with TK-10 renal and 3.14 µM with SF-539 CNS.

With `Cc1ccc2c(ccc3c[n+]4ccccc4c(C)c32)c1`, the TGI with SK-MEL-5 melanoma is 2.47 µM; with SF-268 CNS, 6.64 µM; with A549 NSCLC, 40.9 µM; in the test with MCF7 breast, 15.6 µM; in the test with NCI/ADR-RES ovarian, over 100 µM; in the test with T-47D breast, 12.2 µM. Moreover, the TGI in the test with LOX IMVI melanoma was 27.8 µM; in the test on NCI-H522 lung it was 10.7 µM; with SK-OV-3 ovarian it was 44.8 µM; in the test with MDA-MB-435 it was 17.1 µM; in the test with RXF 393 renal, over 100 µM; with TK-10 renal it was 89.9 µM. This compound also had a TGI in the test with SF-539 CNS of 9.83 µM.

Take `O=C1C(NCCc2cc(Br)c(O)c(Br)c2)=CC(=O)c2ncccc21`: the TGI with SK-MEL-5 melanoma came out at 2.83 µM; with SF-268 CNS, 40.3 µM; in the test with A549 NSCLC, 9.89 µM; in the test on MCF7 breast, 17.4 µM; with NCI/ADR-RES ovarian, 49.5 µM; in the test with T-47D breast, 52 µM. For the same compound, the TGI in the test with SNB-75 CNS worked out at 5.34 µM; with LOX IMVI melanoma, 8.69 µM; with NCI-H522 lung, 12.1 µM; in the test with UACC-62 melanoma, 3.51 µM; in the test with SK-OV-3 ovarian it was 68.1 µM; with MDA-MB-435 it was 3.09 µM. The results for the TGI in the test with RXF 393 renal, with TK-10 renal and in the test on SF-539 CNS were 29.1 µM, 73 µM and 5.36 µM, respectively.

As to `CCOP(=O)(CS(C)=O)O[C@@H]1C[C@H](C)CC[C@H]1C(C)C` (some centres undefined), the TGI in the test on SK-MEL-5 melanoma was 6.85 µM; in the test with SF-268 CNS, 21.3 µM; in the test with A549 NSCLC, 17.7 µM; in the test with MCF7 breast, 11.1 µM; in the test on NCI/ADR-RES ovarian, 26 µM; in the test on T-47D breast, over 29.7 µM. Besides, the TGI in the test with SNB-75 CNS is over 27.5 µM; in the test with LOX IMVI melanoma it was 3.77 µM; in the test on NCI-H522 lung, 6.19 µM; in the test on UACC-62 melanoma, 7.08 µM; with SK-OV-3 ovarian, 19.9 µM; in the test with MDA-MB-435 it was 11.9 µM. Further, the TGI with RXF 393 renal is 7.83 µM; in the test with TK-10 renal, 16.3 µM; with SF-539 CNS, 26.9 µM.

On to `C/C(C=O)=N\Nc1cc(C)c2ccccc2n1`, for which the TGI in the test on SK-MEL-5 melanoma is 29.9 µM; in the test with SF-268 CNS, 43.2 µM; in the test with A549 NSCLC it was 43 µM; in the test with MCF7 breast, 29.5 µM; in the test with NCI/ADR-RES ovarian it was 31 µM; with T-47D breast, 39.9 µM. Further, the TGI with SNB-75 CNS stood at 30.3 µM; in the test with LOX IMVI melanoma it was 29.4 µM; in the test with NCI-H522 lung, 47.1 µM; in the test on UACC-62 melanoma it was 28.2 µM; in the test on SK-OV-3 ovarian, 45 µM; in the test with MDA-MB-435 it was 38.1 µM. Moreover, the TGI was found to be 43.1 µM with RXF 393 renal, 29.5 µM in the test on TK-10 renal and 28.8 µM with SF-539 CNS.

Source of the values: PubChem BioAssay (NCI).
